In US7312188B2, “Peptide derivatives having β-secretase inhibitory activity” (priority 2003, dated 2007):
Numbered stars: 1 amine (or outer) side, 2 acyl side, 3 side chain; on linkers, the order of the positions; unused ones are H or OH. Square brackets hold non-standard residues; d marks the D form. Apns = amino acid residue of (2S,3S)-3-amino-2-hydroxy-4-phenylbutanoic acid, O=C([C@@H](O)[C@H](Cc1ccccc1)N[*:1])[*:2]; β3hPhe(2R-OH) = O=C([C@H](O)[C@H](Cc1ccccc1)N[*:1])[*:2]

Molecular target: T1, recombinant human BACE-1 (rhBACE-1) (Homo sapiens, UniProt P56817)
T1 construct: expressed as only an extracellular region (amino acid 1-460 residues) of recombinant human β-secretase; His tag (C); purchased R&D systems (Minneapolis, Minn.); host or cells: murine myeloma cell line NS0
T1 sequence (P56817 22-460 limits assumed): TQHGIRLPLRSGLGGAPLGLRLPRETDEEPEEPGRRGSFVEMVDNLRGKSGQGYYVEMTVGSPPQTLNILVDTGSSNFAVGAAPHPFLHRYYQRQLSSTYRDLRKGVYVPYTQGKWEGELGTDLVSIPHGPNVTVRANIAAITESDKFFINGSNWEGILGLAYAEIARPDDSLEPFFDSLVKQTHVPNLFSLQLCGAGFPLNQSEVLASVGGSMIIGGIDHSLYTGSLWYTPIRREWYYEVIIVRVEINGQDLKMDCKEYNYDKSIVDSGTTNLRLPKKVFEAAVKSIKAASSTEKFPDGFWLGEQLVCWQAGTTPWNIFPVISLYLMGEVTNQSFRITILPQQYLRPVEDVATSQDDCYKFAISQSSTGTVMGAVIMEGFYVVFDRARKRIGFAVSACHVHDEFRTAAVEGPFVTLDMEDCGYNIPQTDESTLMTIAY
Assay: BACE1 inhibitory activity, reverse phase HPLC quantitation of N-terminal fragment of fluorogenic substrate
Assay type: biochemical
Method in brief: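 rhBACE-1 ectodomain (residues 1-460, C-terminal His tag, NS0-expressed) in MES buffer pH 5.0 with inhibitor (diluted in DMSO, 100 μM solution) and MCA/DNP fluorogenic peptide (250 μM stock), 60 min at 37 °C, TCA stop. N-terminal fragment quantified by reverse-phase HPLC fluorescence (Ex 328/Em 393 nm); inhibition % derived.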

[1] = 1 μL of inhibitor solution in DMSO (100 μM) in 50 μL reaction, MES buffer pH 5.0, 37° C., 60 minutes

Molecule | inhibition at 2 µM [1] [%] | inhibition at 100 µM (stock) [1] [%] | Activity (BACE1 inhibition %) [1] [%] | other results
CC(C)[C@H](NC(=O)[C@@H](N)CCC(=O)O)C(=O)N[C@@H](Cc1ccc(Cl)cc1)C(=O)N[C@@H](Cc1ccccc1)[C@@H](O)C(=O)Nc1cccc(C(=O)O)c1 [Example 168] | 60 |  |  | 
CC(C)C[C@H](NC(=O)[C@@H](NC(=O)[C@@H](N)CCC(=O)O)c1ccccc1)C(=O)N[C@@H](Cc1ccccc1)[C@@H](O)C(=O)Nc1cccc(C(=O)O)c1 [Example 169] | 61.6 |  |  | 
CC(C)[C@H](NC(=O)[C@@H](N)CCC(=O)O)C(=O)N[C@@H](Cc1ccc(Cl)c(Cl)c1)C(=O)N[C@@H](Cc1ccccc1)[C@@H](O)C(=O)Nc1cccc(C(=O)O)c1 [Example 170] | 60.5 |  |  | 
CC(C)C[C@H](NC(=O)[C@@H](NC(=O)[C@@H](N)CNC(=O)c1cc(N)cc(C(=O)O)c1)C(C)C)C(=O)N[C@@H](Cc1ccccc1)[C@@H](O)C(=O)Nc1cccc(C(N)=O)c1 [Example 171] | 91.8 |  |  | 
CC(C)C[C@H](NC(=O)[C@@H](NC(=O)[C@@H](N)CNC(=O)c1cccc(O)c1O)C(C)C)C(=O)N[C@@H](Cc1ccccc1)[C@@H](O)C(=O)Nc1cccc(C(=O)O)c1 [Example 172] | 89.5 |  |  | 
CC(C)C[C@H](NC(=O)[C@@H](NC(=O)[C@@H](N)CNC(=O)c1ccc(O)cc1O)C(C)C)C(=O)N[C@@H](Cc1ccccc1)[C@@H](O)C(=O)Nc1cccc(C(=O)O)c1 [Example 173] |  | 86.1 |  | 
CC(C)C[C@H](NC(=O)[C@@H](NC(=O)[C@@H](N)CNC(=O)c1ccco1)C(C)C)C(=O)N[C@@H](Cc1ccccc1)[C@@H](O)C(=O)Nc1cccc(C(=O)O)c1 [Example 174] | 81.8 |  |  | 
CC(C)C[C@H](NC(=O)[C@@H](NC(=O)[C@@H](N)CNC(=O)c1cc(N)cc(C(=O)O)c1)C(C)C)C(=O)N[C@@H](CSc1ccccc1)[C@@H](O)C(=O)Nc1cccc(C(=O)O)c1 [Example 177] | 98.5 |  |  | 
Cc1cc(NC(=O)[C@H](O)[C@H](Cc2ccccc2)NC(=O)[C@H](CC(C)C)NC(=O)[C@@H](NC(=O)[C@@H](N)CCC(=O)O)C(C)C)cc(C)c1OCC(=O)O [Example 178] | 73.4 |  |  | 
CC(C)C[C@H](NC(=O)[C@@H](NC(=O)[C@@H](N)CCC(=O)O)C(C)C)C(=O)N[C@@H](Cc1ccccc1)[C@@H](O)C(=O)Nc1cc(C(N)=O)cc(C(=O)O)c1 [Example 179] | 83.7 |  |  | 
CNC(=O)c1cc(NC(=O)[C@H](O)[C@H](Cc2ccccc2)NC(=O)[C@H](CC(C)C)NC(=O)[C@@H](NC(=O)[C@@H](N)CCC(=O)O)C(C)C)cc(C(=O)NC)c1 [Example 180] | 51.4 |  |  | 
COC(=O)c1cc(N)cc(C(=O)NC[C@H](N)C(=O)N[C@H](C(=O)N[C@@H](CC(C)C)C(=O)N[C@@H](Cc2ccccc2)[C@@H](O)C(=O)Nc2cccc(C(=O)O)c2)C(C)C)c1 [Example 181] |  | 82.5 |  | 
CC(C)C[C@H](NC(=O)[C@@H](NC(=O)[C@@H](N)CCC(=O)O)C(C)C)C(=O)N[C@@H](Cc1ccccc1)[C@@H](O)C(=O)Nc1cc(Cl)c(OCC(N)=O)c(Cl)c1 [Example 182] |  | 75.7 |  | 
COC(=O)c1cccc(C(=O)NC[C@H](N)C(=O)N[C@H](C(=O)N[C@@H](CC(C)C)C(=O)N[C@@H](Cc2ccccc2)[C@@H](O)C(=O)Nc2cccc(C(=O)O)c2)C(C)C)c1 [Example 183] |  | 52.1 |  | 
CC(C)C[C@H](NC(=O)[C@@H](NC(=O)[C@@H](N)CCC(=O)O)C(C)C)C(=O)N[C@@H](Cc1ccccc1)[C@@H](O)C(=O)Nc1cc(Br)c(OCC(=O)O)c(Br)c1 [Example 184] |  | 88.1 |  | 
CC(C)C[C@H](NC(=O)[C@@H](NC(=O)[C@@H](N)CNC(=O)c1nnn[nH]1)C(C)C)C(=O)N[C@@H](Cc1ccccc1)[C@@H](O)C(=O)Nc1cccc(-c2nnn[nH]2)c1 [Example 185] |  | 100 |  | 
CC(C)C[C@H](NC(=O)[C@@H](NC(=O)[C@@H](N)CNC(=O)c1[nH]c(=O)[nH]c(=O)c1F)C(C)C)C(=O)N[C@@H](Cc1ccccc1)[C@@H](O)C(=O)Nc1cccc(-c2nnn[nH]2)c1 [Example 187] |  | 100 |  | 

Molecule | inhibition at 2 µM [1] [%] | inhibition at 100 µM (stock) [1] [%] | Activity (BACE1 inhibition %) [1] [%] | other results
CC(C)[C@H](NC(=O)[C@@H](N)CNC(=O)c1cc(O)ccc1O)C(=O)N[C@@H](CC1CCCCC1)C(=O)N[C@@H](Cc1ccccc1)[C@@H](O)C(=O)Nc1cccc(-c2nnn[nH]2)c1 [Example 188] |  | 99.5 |  | 
CC(C)[C@H](NC(=O)[C@@H](N)CNC(=O)c1[nH]c(=O)[nH]c(=O)c1F)C(=O)N[C@@H](CC1CCCCC1)C(=O)N[C@@H](Cc1ccccc1)[C@@H](O)C(=O)Nc1cccc(-c2nnn[nH]2)c1 [Example 189] |  | 100 |  | 
CC(C)C[C@H](NC(=O)[C@@H](NC(=O)[C@@H](N)CNC(=O)c1cc(O)ccc1O)C(C)C)C(=O)N[C@@H](Cc1ccccc1)[C@@H](O)C(=O)Nc1cccc(-c2nnn[nH]2)c1 [Example 190] |  | 99.3 |  | 
H-Glu-Val-Leu-Apns-Asp-Ala-Glu-Phe-OH ({H2N-Glu-Val-Leu-Apns}-DAEF-OH; SMILES CC(C)C[C@H](NC(=O)[C@@H](NC(=O)[C@@H](N)CCC(=O)O)C(C)C)C(=O)N[C@@H](Cc1ccccc1)[C@H](O)C(=O)N[C@@H](CC(=O)O)C(=O)N[C@@H](C)C(=O)N[C@@H](CCC(=O)O)C(=O)N[C@@H](Cc1ccccc1)C(=O)O) [Example 18] |  |  | 53.38 | 
H-Glu-Val-Leu-Pns-Ala-Ala-Glu-Phe-OH (H-EVL[β3hPhe(2R-OH)]AAEF-OH; SMILES CC(C)C[C@H](NC(=O)[C@@H](NC(=O)[C@@H](N)CCC(=O)O)C(C)C)C(=O)N[C@@H](Cc1ccccc1)[C@@H](O)C(=O)N[C@@H](C)C(=O)N[C@@H](C)C(=O)N[C@@H](CCC(=O)O)C(=O)N[C@@H](Cc1ccccc1)C(=O)O) [Example 13] |  |  | 53.71 | 
H-Glu-Val-Leu-Pns-Ala-Glu-Glu-Phe-OH (H-EVL[β3hPhe(2R-OH)]AEEF-OH; SMILES CC(C)C[C@H](NC(=O)[C@@H](NC(=O)[C@@H](N)CCC(=O)O)C(C)C)C(=O)N[C@@H](Cc1ccccc1)[C@@H](O)C(=O)N[C@@H](C)C(=O)N[C@@H](CCC(=O)O)C(=O)N[C@@H](CCC(=O)O)C(=O)N[C@@H](Cc1ccccc1)C(=O)O) [Example 27] |  |  | 78.43 | 
H-Glu-Val-Leu-Pns-Ala-Phe-Glu-Phe-OH (H-EVL[β3hPhe(2R-OH)]AFEF-OH; SMILES CC(C)C[C@H](NC(=O)[C@@H](NC(=O)[C@@H](N)CCC(=O)O)C(C)C)C(=O)N[C@@H](Cc1ccccc1)[C@@H](O)C(=O)N[C@@H](C)C(=O)N[C@@H](Cc1ccccc1)C(=O)N[C@@H](CCC(=O)O)C(=O)N[C@@H](Cc1ccccc1)C(=O)O) [Example 26] |  |  | 60.23 | 
H-Glu-Val-Leu-Pns-Asp-Ala-Gln-Phe-OH (H-EVL[β3hPhe(2R-OH)]DAQF-OH; SMILES CC(C)C[C@H](NC(=O)[C@@H](NC(=O)[C@@H](N)CCC(=O)O)C(C)C)C(=O)N[C@@H](Cc1ccccc1)[C@@H](O)C(=O)N[C@@H](CC(=O)O)C(=O)N[C@@H](C)C(=O)N[C@@H](CCC(N)=O)C(=O)N[C@@H](Cc1ccccc1)C(=O)O) [Example 28] |  |  | 55.88 | 
H-Glu-Val-Leu-Pns-Asp-Ala-Glu-Gly-OH (H-EVL[β3hPhe(2R-OH)]DAEG-OH; SMILES CC(C)C[C@H](NC(=O)[C@@H](NC(=O)[C@@H](N)CCC(=O)O)C(C)C)C(=O)N[C@@H](Cc1ccccc1)[C@@H](O)C(=O)N[C@@H](CC(=O)O)C(=O)N[C@@H](C)C(=O)N[C@@H](CCC(=O)O)C(=O)NCC(=O)O) [Example 45] |  |  | 66.79 | 
H-Glu-Val-Leu-Pns-Asp-Ala-Glu-OH [Example 32] |  |  | 71.60 | 
H-Glu-Val-Leu-Pns-Asp-Ala-Glu-Phe-OH (H-EVL[β3hPhe(2R-OH)]DAEF-OH; SMILES CC(C)C[C@H](NC(=O)[C@@H](NC(=O)[C@@H](N)CCC(=O)O)C(C)C)C(=O)N[C@@H](Cc1ccccc1)[C@@H](O)C(=O)N[C@@H](CC(=O)O)C(=O)N[C@@H](C)C(=O)N[C@@H](CCC(=O)O)C(=O)N[C@@H](Cc1ccccc1)C(=O)O) [Example 7] |  |  | 89.65 | 
H-Glu-Val-Leu-Pns-Asp-Ala-Gly-Phe-OH [Example 44] |  |  |  | Activity (BACE1 inhibition %) (pH 5, 100 µM): 56.30%
H-Glu-Val-Leu-Pns-Asp-Ala-Leu-Phe-OH (H-EVL[β3hPhe(2R-OH)]DALF-OH; SMILES CC(C)C[C@H](NC(=O)[C@H](C)NC(=O)[C@H](CC(=O)O)NC(=O)[C@H](O)[C@H](Cc1ccccc1)NC(=O)[C@H](CC(C)C)NC(=O)[C@@H](NC(=O)[C@@H](N)CCC(=O)O)C(C)C)C(=O)N[C@@H](Cc1ccccc1)C(=O)O) [Example 30] |  |  | 56.57 | 
H-Glu-Val-Leu-Pns-Asp-Ala-Phe-Phe-OH (H-EVL[β3hPhe(2R-OH)]DAFF-OH; SMILES CC(C)C[C@H](NC(=O)[C@@H](NC(=O)[C@@H](N)CCC(=O)O)C(C)C)C(=O)N[C@@H](Cc1ccccc1)[C@@H](O)C(=O)N[C@@H](CC(=O)O)C(=O)N[C@@H](C)C(=O)N[C@@H](Cc1ccccc1)C(=O)N[C@@H](Cc1ccccc1)C(=O)O) [Example 31] |  |  | 66.56 | 
H-Glu-Val-Leu-Pns-Asp-Ala-Val-Phe-OH (H-EVL[β3hPhe(2R-OH)]DAVF-OH; SMILES CC(C)C[C@H](NC(=O)[C@@H](NC(=O)[C@@H](N)CCC(=O)O)C(C)C)C(=O)N[C@@H](Cc1ccccc1)[C@@H](O)C(=O)N[C@@H](CC(=O)O)C(=O)N[C@@H](C)C(=O)N[C@H](C(=O)N[C@@H](Cc1ccccc1)C(=O)O)C(C)C) [Example 29] |  |  | 57.47 | 
H-Glu-Val-Leu-Pns-Asp-Gly-Glu-Phe-OH (H-EVL[β3hPhe(2R-OH)]DGEF-OH; SMILES CC(C)C[C@H](NC(=O)[C@@H](NC(=O)[C@@H](N)CCC(=O)O)C(C)C)C(=O)N[C@@H](Cc1ccccc1)[C@@H](O)C(=O)N[C@@H](CC(=O)O)C(=O)NCC(=O)N[C@@H](CCC(=O)O)C(=O)N[C@@H](Cc1ccccc1)C(=O)O) [Example 43] |  |  | 81.23 | 
